Test results reported in patent US20110190492A1, “DIAGNOSTIC PROBE FOR CONFORMATION DISEASE” (TOHOKU UNIVERSITY, priority 2005, published 2011).

Columns and labels:
amyloid β protein = biological target: T1, amyloid β protein (Homo sapiens, UniProt P05067); experiment: Staining test on a brain section of an Alzheimer disease patient (amyloid β protein); type: binding, human (Alzheimer disease patient); details: 100 μM compound in 50% ethanol, 10 minutes, fluorescence microscopy
T1 construct: from tissue; host or cells: paraffin-embedded human brain sections (temporal lobe, hippocampus) of Alzheimer disease patients
T1 sequence (P05067 672-713 limits assumed): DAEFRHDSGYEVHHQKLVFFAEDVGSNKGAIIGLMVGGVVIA
Text: (1) Brain specimens at the temporal lobe and the hippocampus of patients to which a definitive diagnosis of Alzheimer disease had been given, and those of normal senile persons were used. The specimens were given by our coworker, Fukushimura Hospital, Longevity Medicine Institute, and we were given their consent of use of the specimens for our study purpose by the bereaved of the patients (Fukushimura Hospital Ethical Review Board Approval No. 20).
(2) The paraffin-embedded brain tissue was cut into slices having a thickness of 6 μm or 8 μm, and extended and dried on a slide. The paraffin brain section was processed for paraffin removal in xylene twice for 10 minutes, 100% ethanol twice for 5 minutes, 90% ethanol for 5 minutes and running water for 10 minutes in that order.
(3) For pretreatment prior to the staining treatment with a compound of the invention, the sections were processed for autofluorescence removal with lipofuscin. First, the paraffin-removed sections were dipped in 0.25% KMnO4 solution for 20 minutes. These were washed with PBS, twice for 2 minutes, then dipped in 0.1% K2S2O5/oxalic acid solution for about 5 seconds, and then further washed with PBS, three times for 2 minutes.
(4) About 150 μl of a 100 μM solution of a compound of the invention dissolved in 50% ethanol was dropwise applied to the section and reacted for 10 minutes. After dipped five times in tap water, the section was entrapped with Fluor Save Reagent (Calbiochem), and analyzed through microscopy with a fluorescence microscope (Nikon, Eclipse 80i). The images were taken with a digital camera (Nikon Dxm 1200F or Photometrics' Cool SNAP ES).

[1] = test system: histidine-requiring Salmonella typhimurium TA100 and TA98 strains; experiment: Mutagenicity test (reverse mutation test); type: cell-based
Description: In view of their use, it is desirable that the compounds of the invention have no mutagenicity or have little mutagenicity to a level causing no problem. For investigating the gene mutagenesis of the compounds of the invention, herein carried out was a reverse mutation test with histidine-requiring Salmonella typhimurium TA100 and TA98 strains. Two tests were carried out. One is a test for dose determination test; and the other is for mutagenicity.
The test methods and the mutagenicity of the compounds of the invention are mentioned below. In the dose determination test, six doses of 0.160, 0.800, 4.00, 20.0, 100 and 500 μg/plate (common ratio 5) were tried.
As a result of the dose determination test, when the mutagenicity of the test compound was admitted, then the actual test for mutagenicity was carried out, using the dose capable of giving an accurate dose-reaction curve. When no mutagenicity of the test compound was admitted in the dose determination test and when the growth inhibition of the test cells was admitted therein, then the dose to present the growth inhibition was taken as the maximum dose; and when the growth inhibition was not admitted, then a dose of 5000 μg/plate was taken as the maximum dose. With that, the actual test for mutagenicity was carried out on the level of 6 doses (common ratio 2).
First, a test compound was dissolved or suspended in DMSO, then diluted in order to prepare test compound liquids having a varying concentration.
100 μl of a test compound liquid or a negative control (DMSO) solution was put into a sterilized test tube. Then, for the case in the absence of a metabolic activation system (−S9mix), 500 μl of 0.1 mol/liter sodium-phosphate buffer (pH 7.4) was added to it; and for the case in the presence of a metabolic activation system (+S9mix), 500 μl of S9mix was added to it.
Next, 100 μl of the test strain suspension that had been cultivated with shaking at 37° C. for 8 hours was added to it, and preincubated in a shaking thermostat at 37° C. for 20 minutes. After shaken, 2 ml of top agar was added to it, and the contents were mixed.
Next, the mixture was poured onto a minimal glucose agar plate medium (plate) and spread uniformly thereon, then the top agar was solidified, and the plate was transferred into a thermostat and incubated at 37° C. for 48 hours.
Then, the number of the colonies grown through reverse mutation was counted.
For counting it, […]. After area correction and miss-counting correction, the number of the colonies was computed. When the colony analyzer could not be used owing to the deposition of the test compound or the cell growth inhibition, then the number of the colonies was counted with the naked eye.
In case where the number of the colonies through reverse mutation increased two times or more that of the negative control and where the dose dependency or the reproducibility of the increase was admitted, then the tested sample was decided as positive. When the sample was decided as positive, then the relative activity that indicates the relative comparative value of the intensity of the mutagenicity of the test compound was obtained according to the following formula:
Relative Activity={(number of colonies per plate having the concentration)−(number of colonies per negative control plate)}/the value of concentration (mg/plate).

[2] = Acute toxicity test, intravenous administration to mice; type: in vivo; details: mice observed for 7 days
Description: The compounds of the invention were tested for their acute toxicity through intravenous administration thereof to mice. Four Crj:CD1 male mice formed one test group, and some test groups of those mice were used (the mean body weight of the mice of each group was from 31 to 32 g). A test compound was dissolved in a mixture of 1 N HCl, polyethylene glycol-400 and distilled water, or dissolved in DMSO, and then diluted with distilled water. This was administered to each mouse via its tail vein.

[3] = irrespective of the absence or presence of S9mix

| SMILES | binding to amyloid β protein in the brain section of an Alzheimer disease patient (amyloid β protein) | also measured |
| --- | --- | --- |
| N#C/C(=C\c1ccc(N2CCOCC2)o1)c1nc2ccccc2[nH]1 [THK-203, 2-(1H-benzimidazol-2-yl)-3-(5-morpholin-4-yl-furan-2-yl)-acrylonitrile] | bound to the amyloid β protein |  |
| CN1CCN(c2ccc(/C=C(\C#N)c3nc4ccccc4[nH]3)o2)CC1 [THK-207, 2-(1H-benzimidazol-2-yl)-3-[5-(4-methyl-piperazin-1-yl)-furan-2-yl]-acrylonitrile] | bound to the amyloid β protein |  |
| CN(C)c1ccc(/C=C\C=C2C(=O)c3ccccc3C2=O)cc1 [THK-248, 2-[3-(4-dimethylamino-phenyl)-allylidene]-indane-1,3-dione] | bound to the amyloid β protein |  |
| CN(C)c1ccc(-c2nnc(-c3sc4cc(Cl)ccc4c3Cl)o2)cc1 [THK-262, [4-[5-(3,6-dichloro-benzo[b]thiophen-2-yl)-[1,3,4]oxadiazol-2-yl]-phenyl]-dimethylamine] | bound to the amyloid β protein |  |
| O=C1Nc2ccc(Cl)cc2/C1=C/c1ccc(N2CCOCC2)cc1 [THK-276, 5-chloro-3-(4-morpholin-4-yl-benzylidene)-1,3-dihydroindol-2-one] | bound to the amyloid β protein |  |
| CC1(C)c2ccccc2N2CCC(=O)NC21/C=C/c1ccc(N2CCOCC2)cc1 (centres unmarked) [THK-336] |  | relative activity [1, 3]: minus |
| FCCOc1ccc2nc(/C=C/c3cnc(N4CCOCC4)s3)oc2c1 [THK-525, 6-(2-fluoro-ethoxy)-2-[2-(2-morpholin-4-yl-thiazol-5-yl)-vinyl]-benzoxazole] | bound to the amyloid β protein | Maximum Permissible Dose [2]: ≧10 mg/kg; relative activity [1, 3]: minus |
| N#CC(C#N)=Cc1ncc(/C=C/c2nc3ccc(OCC(CO)CF)cc3o2)s1 (centres unmarked) [THK-683] |  | relative activity [1, 3]: minus |
| CN1CCN(c2ncc(/C=C/c3nc4ccc(OC(CO)CF)cc4o3)s2)CC1 (centres unmarked) [THK-707, (E)-6-[(1-fluoromethyl-2-hydroxy)ethoxy]-2-[2-[2-(4-methylpiperazin-1-yl)thiazol-5-yl]ethenyl]benzoxazole] |  | Maximum Permissible Dose [2]: ≧10 mg/kg; relative activity ([1]; in the presence of S9mix): weak |
| OCC(CF)Oc1ccc2nc(/C=C/c3cnc(N4CCCCC4)s3)oc2c1 (centres unmarked) [THK-713] |  | Maximum Permissible Dose [2]: ≧10 mg/kg; relative activity [1, 3]: minus |
| OCC(CF)Oc1ccc2nc(/C=C/c3cnc(N4CCCC4)s3)oc2c1 (centres unmarked) [THK-752, (E)-6-[(1-fluoromethyl-2-hydroxy)ethoxy]-2-[2-[2-(pyrrolidin-1-yl)-thiazol-5-yl]ethenyl]benzoxazole] | The white space arrow indicates amyloid β protein | Maximum Permissible Dose [2]: ≧10 mg/kg; relative activity [1, 3]: minus |
| OCC(CF)Oc1ccc2nc(/C=C/c3cnc(N4CCCOC4)s3)oc2c1 (centres unmarked) [THK-757, (E)-6-[(1-fluoromethyl-2-hydroxy)ethoxy]-2-[2-[2-([1,3]oxadinan-3-yl)-thiazol-5-yl]ethenyl]benzoxazole] |  | Maximum Permissible Dose [2]: ≧10 mg/kg |
| OCC(CF)Oc1ccc2nc(/C=C/c3cnc(N4CCCCCC4)s3)oc2c1 (centres unmarked) [THK-765, (E)-6-[(1-fluoromethyl-2-hydroxy)ethoxy]-2-[2-[2-(homopiperidin-1-yl)thiazol-5-yl]ethenyl]benzoxazole] |  | Maximum Permissible Dose [2]: ≧10 mg/kg |
| OCC(CF)Oc1ccc2nc(/C=C/c3cnc(N4CCCOCC4)s3)oc2c1 (centres unmarked) [THK-766, (E)-6-[(1-fluoromethyl-2-hydroxy)ethoxy]-2-[2-(2-homomorpholinothiazol-5-yl)ethenyl]benzoxazole] | The white space arrow indicates amyloid β protein | Maximum Permissible Dose [2]: ≧10 mg/kg |

Now from value to molecule, other results behind:

| binding to amyloid β protein in the brain section of an Alzheimer disease patient (amyloid β protein) | SMILES | also measured |
| --- | --- | --- |
| bound to the amyloid β protein | Cc1ccc2c(c1)C(C)(C)[C@@]1(/C=C/C=C/c3ccc(N(C)C)cc3)NC(=O)CCN21 (stereo in doubt) [THK-585, 10a-[4-(4-dimethylamino-phenyl)-buta-1,3-dienyl]-8,10,10-trimethyl-3,4,10,10a-tetrahydro-1H-pyrimido[1,2-a]indol-2-one] |  |
| bound to the amyloid β protein | C(=C\c1nc2c(ccc3ccccc32)s1)/c1ccc(N2CCOCC2)cc1 [THK-281, 2-[2-(4-morpholin-4-yl-phenyl)-vinyl]naphthol[1,2-d]thiazole] |  |
| bound to the amyloid β protein | O=C1Nc2ccc(Cl)cc2/C1=C/c1ccc(N2CCOCC2)s1 [THK-308, 5-chloro-3-(5-morpholin-4-yl-thiophen-2-ylmethylene)-1,3-dihydroindol-2-one] |  |
| bound to the amyloid β protein | c1csc(-c2nnc(-c3ccc(N4CCOCC4)cc3)o2)c1 [THK-383, 4-[4-(5-thiophen-2-yl-[1,3,4]oxadiazol-2-yl)-phenyl]-morpholine] |  |
| bound to the amyloid β protein | COc1ccccc1-c1nnc(-c2ccc(N3CCOCC3)cc2)o1 [THK-385] |  |
| bound to the amyloid β protein | CN(C)c1ccc(/C=C/C23NC(=O)CN2c2ccc(Br)cc2C3(C)C)cc1 (centres unmarked) [THK-556, 7-bromo-9a-[2-(4-dimethylamino-phenyl)-vinyl]-9,9-dimethyl-9,9a-dihydro-1H-imidazo[1,2-a]indol-2-one] |  |
| bound to the amyloid β protein | CN(C)c1ccc(/C=C/C23NC(=O)CCN2c2ccc(Br)cc2C3(C)C)cc1 (centres unmarked) [THK-558, 8-bromo-10a-[2-(4-dimethylamino-phenyl)-vinyl]-10,10-dimethyl 1-3,4,10,10a-tetrahydro-1H-pyrimido[1,2-a]indol-2-one] |  |
| bound to the amyloid β protein | CC1CN2c3ccccc3C(C)(C)C2(/C=C/c2ccc(N(C)C)cc2)NC1=O (centres unmarked) [THK-559, 10a-[2-(4-dimethylamino-phenyl)-vinyl]-3,10,10-trimethyl-3,4,10,10a-tetrahydro-1H-pyrimido[1,2-a]indol-2-one] |  |
| bound to the amyloid β protein | CN(C)c1ccc(/C=C/C23NC(=O)CN2c2ccccc2C3(C)C)cc1 (centres unmarked) [THK-562] |  |
| bound to the amyloid β protein | CCN(CC)c1ccc(/C=C/C23NC(=O)CN2c2ccccc2C3(C)C)cc1 (centres unmarked) [THK-563] |  |
| bound to the amyloid β protein | Cc1ccc2c(c1)C(C)(C)C1(/C=C/C=C/c3ccc(N(C)C)cc3)NC(=O)CCN21 (centres unmarked) [THK-565, 10a-[4-(4-dimethylamino-phenyl)-buta-1,3-dienyl]-8,10,10-trimethyl-3,4,10,10a-tetrahydro-1H-pyrimido[1,2-a]indol-2-one] |  |
